Experimental data: US12138267B2, “Methods of treating respiratory depression modulated by a non-opioid agent” (Enalare Therapeutics Inc., priority 2021, dated 2024)
“Also recorded” adds a separate entry of the source. Where two headings read alike, the source gives them in different places.

How the values were obtained:
healthy participants [1] = assay: Safety and tolerability; format: in vivo, human
From the text: (§1) Subjects underwent 3 separate treatment periods. […] PD will be unblinded for treatment but not subject. […] Participant Disposition
Moreover, the only participant who developed phlebitis received placebo. […] No clinically meaningful differences between treatments were identified in any other safety parameter.

[2] = Pharmacokinetics of Compound A, plasma concentrations after IV infusion; format: in vivo, human; settings: for AUC(0-inf) / AUC(0-t) / clearance / Cmax / half-life / Tmax: both sexes, human, plasma, intravenous
Protocol: as §1
Pharmacokinetic samples were measured up to 24 hours after the start of the IV infusion. […] Therefore, a fast decrease in concentration was observed, followed by a slow […].

healthy participants [3] = settings: cited from earlier work
healthy participants [4] = assay: Sedation (BIS), cardiovascular response and arterial blood gases; format: in vivo, human; settings: versus placebo
healthy participants [5] = tested on: healthy participants
[6] = Compound A (dose not given; third treatment), first hypoxic measurement under hypercapnic conditions, without propofol
[7] = Compound A (dose not given; third treatment), hypoxic/hypercapnic measurement during propofol high dose
[8] = Compound A low dose, first hypoxic measurement under hypercapnic conditions, without propofol
[9] = Compound A low dose, hypoxic/hypercapnic measurement during propofol high dose

SMILES: CCCNc1nc(NCCC)nc(N(C)OC)n1 [Compound A]
- Nausea probably related to treatment (healthy participants [1]; Compound A high dose, IV ondansetron pre-treatment): single occurrence of mild nausea
- Treatment-related SAEs (healthy participants [1]; in vivo): No treatment-related SAEs
- Trend in AEs (healthy participants [1]; in vivo): mild infusion site pain and related events
- Safety and tolerability (healthy participants [1]; two dose levels, healthy participants): safe and well tolerated; also recorded: favourable safety and tolerability profiles
- AUCinf Min ([2]; ENA-001 high dose, N 12): 6.235 µg·h/mL
- AUClast Max ([2]; ENA-001 high dose, N 12): 13.169 µg·h/mL
- AUClast Min ([2]; ENA-001 high dose, N 12): 6.169 µg·h/mL
- CL Max ([2]; ENA-001 high dose, N 12): 67.8 L/h
- CL Min ([2]; ENA-001 high dose, N 12): 23.8 L/h
- Cmax Min ([2]; ENA-001 high dose, N 12): 1.09 µg/mL
- Cmin Geometric Mean ([2]; ENA-001 high dose, N 12): 0.8674 µg/mL
- Cmin Max ([2]; ENA-001 high dose, N 12): 1.23 µg/mL
- Cmin Mean ([2]; ENA-001 high dose, N 12): 0.8866 µg/mL
- Cmin Median ([2]; ENA-001 high dose, N 12): 0.859 µg/mL
- Cmin Min ([2]; ENA-001 high dose, N 12): 0.601 µg/mL
- t1/2 Max ([2]; ENA-001 high dose, N 12): 8.40 h
- t1/2 Min ([2]; ENA-001 high dose, N 12): 3.39 h
- tmax Max ([2]; ENA-001 high dose, N 12): 4.50 h
- tmax Min ([2]; ENA-001 high dose, N 12): 1.92 h
- AUCinf Max ([2]; ENA-001 low dose, N 12): 3.148 µg·h/mL
- AUCinf Min ([2]; ENA-001 low dose, N 12): 2.155 µg·h/mL
- AUClast Max ([2]; ENA-001 low dose, N 12): 3.059 µg·h/mL
- AUClast Min ([2]; ENA-001 low dose, N 12): 2.151 µg·h/mL
- CL Max ([2]; ENA-001 low dose, N 12): 75.5 L/h
- CL Min ([2]; ENA-001 low dose, N 12): 41.9 L/h
- Cmax Max ([2]; ENA-001 low dose, N 12): 0.563 µg/mL
- Cmax Min ([2]; ENA-001 low dose, N 12): 0.375 µg/mL
- Cmin Geometric Mean ([2]; ENA-001 low dose, N 12): 0.2996 µg/mL
- Cmin Max ([2]; ENA-001 low dose, N 12): 0.379 µg/mL
- Cmin Mean ([2]; ENA-001 low dose, N 12): 0.3023 µg/mL
- Cmin Median ([2]; ENA-001 low dose, N 12): 0.296 µg/mL
- Cmin Min ([2]; ENA-001 low dose, N 12): 0.251 µg/mL
- t1/2 Max ([2]; ENA-001 low dose, N 12): 6.99 h
- t1/2 Min ([2]; ENA-001 low dose, N 12): 3.00 h
- tmax Max ([2]; ENA-001 low dose, N 12): 4.50 h
- tmax Min ([2]; ENA-001 low dose, N 12): 3.33 h
- Plasma values at 24 hours post-dose ([2]; all participants, both dose levels): above the LLOQ
- AUC(0-inf) ([2]; ENA-001 high dose, N 12, read-out: AUCinf Geometric Mean): 8.44 µg·h/mL
- AUC(0-inf) ([2]; ENA-001 high dose, N 12, read-out: AUCinf Mean): 8.71 µg·h/mL
- AUC(0-inf) ([2]; ENA-001 high dose, N 12, read-out: AUCinf Median): 7.8 µg·h/mL
- AUC(0-t) ([2]; ENA-001 high dose, N 12, read-out: AUClast Geometric Mean): 8.24 µg·h/mL
- AUC(0-t) ([2]; ENA-001 high dose, N 12, read-out: AUClast Mean): 8.5 µg·h/mL
- AUC(0-t) ([2]; ENA-001 high dose, N 12, read-out: AUClast Median): 7.54 µg·h/mL
- clearance ([2]; ENA-001 high dose, N 12, read-out: CL Geometric Mean (converted)): 735 mL/min
- clearance ([2]; ENA-001 high dose, N 12, read-out: CL Mean (converted)): 756 mL/min
- clearance ([2]; ENA-001 high dose, N 12, read-out: CL Median (converted)): 772 mL/min
- Cmax ([2]; ENA-001 high dose, N 12, read-out: Cmax Geometric Mean): 1.51 µg/mL
- Cmax ([2]; ENA-001 high dose, N 12, read-out: Cmax Mean): 1.56 µg/mL
- Cmax ([2]; ENA-001 high dose, N 12, read-out: Cmax Median): 1.52 µg/mL
- half-life ([2]; ENA-001 high dose, N 12, read-out: t1/2 Geometric Mean (converted)): 5.49 h
- half-life ([2]; ENA-001 high dose, N 12, read-out: t1/2 Mean (converted)): 5.64 h
- half-life ([2]; ENA-001 high dose, N 12, read-out: t1/2 Median (converted)): 5.63 h
- Tmax ([2]; ENA-001 high dose, N 12, read-out: tmax Geometric Mean): 3.84 h
- Tmax ([2]; ENA-001 high dose, N 12, read-out: tmax Mean): 3.96 h
- Tmax ([2]; ENA-001 high dose, N 12, read-out: tmax Median): 4.36 h
- AUC(0-inf) ([2]; ENA-001 low dose, N 12, read-out: AUCinf Geometric Mean): 2.66 µg·h/mL
- AUC(0-inf) ([2]; ENA-001 low dose, N 12, read-out: AUCinf Mean): 2.67 µg·h/mL
- AUC(0-inf) ([2]; ENA-001 low dose, N 12, read-out: AUCinf Median): 2.65 µg·h/mL
- AUC(0-t) ([2]; ENA-001 low dose, N 12, read-out: AUClast Geometric Mean): 2.61 µg·h/mL
- AUC(0-t) ([2]; ENA-001 low dose, N 12, read-out: AUClast Mean): 2.63 µg·h/mL
- AUC(0-t) ([2]; ENA-001 low dose, N 12, read-out: AUClast Median): 2.63 µg·h/mL
- clearance ([2]; ENA-001 low dose, N 12, read-out: CL Geometric Mean (converted)): 918 mL/min
- clearance ([2]; ENA-001 low dose, N 12, read-out: CL Mean (converted)): 929 mL/min
- clearance ([2]; ENA-001 low dose, N 12, read-out: CL Median (converted)): 885 mL/min
- Cmax ([2]; ENA-001 low dose, N 12, read-out: Cmax Geometric Mean): 0.463 µg/mL
- Cmax ([2]; ENA-001 low dose, N 12, read-out: Cmax Mean): 0.468 µg/mL
- Cmax ([2]; ENA-001 low dose, N 12, read-out: Cmax Median): 0.477 µg/mL
- half-life ([2]; ENA-001 low dose, N 12, read-out: t1/2 Geometric Mean (converted)): 4.99 h
- half-life ([2]; ENA-001 low dose, N 12, read-out: t1/2 Mean (converted)): 5.1 h
- half-life ([2]; ENA-001 low dose, N 12, read-out: t1/2 Median (converted)): 5.05 h
- Tmax ([2]; ENA-001 low dose, N 12, read-out: tmax Geometric Mean): 4.25 h
- Tmax ([2]; ENA-001 low dose, N 12, read-out: tmax Mean): 4.26 h
- Tmax ([2]; ENA-001 low dose, N 12, read-out: tmax Median): 4.33 h
- AUC(0-inf) ([2]; high dose, read-out: highest individual AUCinf): 13.8 µg·h/mL
- Cmax ([2]; high dose, read-out: highest individual Cmax): 2.6 µg/mL
- AUC(0-inf) ([2]; high dose, read-out: mean (±SD) AUCinf): 8.71 ± 2.42 µg·h/mL
- Cmax ([2]; high dose, read-out: mean (±SD) Cmax): 1.56 ± 0.437 µg/mL
- half-life ([2]; high dose, read-out: range of apparent terminal t1/2): 3.39 to 8.4 h
- Tmax ([2]; high dose, read-out: tmax (mean peak concentrations)): 3.96 h
- AUC(0-inf) ([2]; low dose, read-out: mean (±SD) AUCinf): 2.67 ± 0.33 µg·h/mL
- Cmax ([2]; low dose, read-out: mean (±SD) Cmax): 0.468 ± 0.0682 µg/mL
- half-life ([2]; low dose, read-out: range of apparent terminal t1/2): 3 to 6.99 h
- Tmax ([2]; low dose, read-out: tmax (mean peak concentrations)): 4.26 h
- Plasma concentration decline after infusion stop ([2]; from 4 hour 30 minutes onwards): bi-exponential decline
- Average tmin ([2]; high dose): 1.133 h
- Geometric mean Cav30-270 min (average arterial plasma concentration during 30-270 min) ([2]; high dose): 1.16169 µg/mL
- Maximum concentration on average following IV infusion loading dose ([2]; high dose, 20 minutes loading dose 2.0 mg/kg/h): 1162.833 ng/mL
- average Compound A concentration per propofol dosing interval ([2]; high dose, high propofol 200-270 min): 1412.28 ng/mL
- average Compound A concentration per propofol dosing interval ([2]; high dose, low propofol 115-185 min): 1206.27 ng/mL
- average Compound A concentration per propofol dosing interval ([2]; high dose, no propofol 30-100 min): 971.79 ng/mL
- Effect of propofol on Compound A concentrations ([2]; in vivo): No apparent effect
- Dose proportionality of PK ([2]; investigated dosing range, dose normalised AUC and Cav): Dose proportionality of PK over the investigated dosing range was apparent; also recorded: Dose proportionality of PK was apparent over the investigated dosing range; also recorded: showed dose proportionality over the investigated dosing range
- Average tmin ([2]; low dose): 1.201 h
- Geometric mean Cav30-270 min (average arterial plasma concentration during 30-270 min) ([2]; low dose): 0.3664 µg/mL
- Maximum concentration on average following IV infusion loading dose ([2]; low dose, 10 minutes loading dose 2.0 mg/kg/h): 857.000 ng/mL
- average Compound A concentration per propofol dosing interval ([2]; low dose, high propofol 200-270 min): 427.54 ng/mL
- average Compound A concentration per propofol dosing interval ([2]; low dose, low propofol 115-185 min): 359.75 ng/mL
- average Compound A concentration per propofol dosing interval ([2]; low dose, no propofol 30-100 min): 323.41 ng/mL
- Steady state ([2]; within the 260 and 250 minute infusions): steady-state concentrations were not reached; also recorded: did not reach steady state
- Ventilatory stimulation (healthy participants [3]; high dose (1.1 mg/kg/h), healthy participants, Roozekrans et al., 2014): clear ventilatory stimulation
- Stimulatory effects on minute ventilation (healthy participants [3]; low dose (0.4 mg/kg/h), McLeod et al., 2014): no/minimal stimulatory effects on minute ventilation
- Nausea in previous studies (healthy participants [3]; previous studies): nausea was associated with Compound A administration
- Cardiovascular response (healthy participants [4]): No clinically meaningful difference on cardiovascular response
- Level of propofol-induced sedation / arousal, BIS (healthy participants [4]; with clinically relevant doses of propofol): did not impact the level of the propofol-induced sedation; also recorded: did not lead to a significant difference in arousal compared to placebo
- Minute ventilation during hypoxic measurement (healthy participants [5]; [6]): 38.8 L/min
- Minute ventilation, pre-hypoxic baseline (healthy participants [5]; [6]): 8.5 L/min
- Minute ventilation during hypoxic measurement (healthy participants [5]; [7]): 27.4 L/min
- Minute ventilation, pre-hypoxic baseline (healthy participants [5]; [7]): 8.4 L/min
- ETCO2 difference prior to each hypoxic measurement (healthy participants [5]; Compound A high dose compared to placebo and low dose): approximately 3 mmHg
- Increase in minute ventilation induced by hypercapnia (healthy participants [5]; Compound A high dose group, during high dose propofol): more pronounced
- Respiratory rate at pre-hypoxic timepoints (healthy participants [5]; Compound A high dose, during propofol infusion): difference between Compound A high dose compared to placebo and Compound A low dose could be observed
- ETCO2 compared to placebo (healthy participants [5]; Compound A low dose): comparable to placebo treatment
- Hypoxic Sensitivity, First LSM of contrast (healthy participants [5]; Compound A low dose (2 mg/kg/h 10 min then 0.4 mg/kg/h 260 min IV)): 0.747 L/min/%
- Minute ventilation during hypoxic measurement (healthy participants [5]; [8]): 30.3 L/min
- Minute ventilation, pre-hypoxic baseline (healthy participants [5]; [8]): 8.1 L/min
- Minute ventilation during hypoxic measurement (healthy participants [5]; [9]): 15.0 L/min
- Minute ventilation, pre-hypoxic baseline (healthy participants [5]; [9]): 6.3 L/min
- Hypoxic sensitivity compared to placebo (healthy participants [5]; both with and without co-administration of propofol): increased hypoxic sensitivity compared to placebo
- Hypoxic Sensitivity, First LSM of contrast (healthy participants [5]; high dose (2 mg/kg/h 20 min then 1.1 mg/kg/h 250 min IV)): 1.179 L/min/%
- Hypoxic Sensitivity, Estimate of the difference (healthy participants [5]; high dose minus placebo): 0.575 L/min/%
- Hypoxic sensitivity during propofol (healthy participants [5]; in vivo, 1.1 mg/kg): remain similar to pre-propofol values
- Hypoxic Sensitivity, Estimate of the difference (healthy participants [5]; low dose minus placebo): 0.144 L/min/%
